As a reminder, the AC50 is the concentration giving half of the maximal activity seen.

Each structure is given as a SMILES string. Inconclusive results are not listed. Calls of active or inactive are those of the source.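 Rule for the calls: active = compound lowering the normal-ribosome reporter at least twice as much as the humanized-ribosome reporter, growth loss under a set limit; inconclusive = no clear call, values can overlap the other calls; inactive = the rest.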

This assay relates to E. coli WT GFP strain growth, fluorescence, 24 h. The assay can be described thus: growth of wild-type and h24-humanized E. coli strains – h24 mutant RFP vs wild-type GFP, cherry-pick, dose response (AID 977628).
Take `O=C(C[C@H]1CC[C@@H]2[C@H](COC[C@@H](O)CN2C(=O)Nc2cc(Cl)cc(Cl)c2)O1)N1CCOCC1`: the AC50 was > 100 µM (inactive).

With `CC1CCCN(C(=O)C(C)Nc2cc(Cl)ccc2N2CCOCC2)C1` (stereo not drawn), the AC50 was > 100 µM (inactive).

For the molecule `Cc1nc(Sc2ccccc2)c(C#N)c(C)c1[N+](=O)[O-]`, the AC50 is > 100 µM (inactive).

Take `COc1ccc(C)cc1-n1c(=O)c2ccccc2c2ccccc2c1=O`: the AC50 is > 100 µM (inactive).

Regarding `O=C(NCc1nc2ccccc2[nH]1)c1ccc(S(=O)(=O)N2CCCC2)cc1`, the AC50 was > 100 µM (inactive).

In the case of `CCCCCCCNC(=O)c1ccc(N2CCC3(CC2)OCCO3)c([N+](=O)[O-])c1`, the AC50 is > 100 µM (inactive).

Turning to `N#Cc1ccc(C(=O)Nc2ccn(-c3ccccc3)n2)cc1`, the AC50 is > 100 µM (inactive).

As to `CCn1nc(Cc2cccc3ccccc23)c(C#N)c1N`, the AC50 was > 100 µM (inactive).

Turning to `O=C(O)C1CCCCC1C(=O)Nc1ccc(OCc2ccccc2)cc1` (stereo not drawn), the AC50 was > 100 µM (inactive).

For `O=C(c1ccccc1)C1CN(Cc2ccccc2)CCC1(O)c1ccccc1` (stereo not drawn), the AC50 is > 100 µM (inactive).

As for `CN(C)CCCNc1ccc(-c2cc(Nc3cccc(Cl)c3)ncn2)cn1`, the AC50 was > 100 µM (inactive).

Consider `CC1CCCN(c2ccc(C(=O)NCCc3ccccc3)cn2)C1` (stereo not drawn), for which the AC50 was > 100 µM (inactive).

Consider `O=C(Nc1cc(F)ccc1F)N1CCCCN2[C@@H](CO)[C@H](c3ccc(-c4ccncc4)cc3)[C@@H]2C1`, for which the AC50 is > 100 µM (inactive).

`CC1CCCCN1CC(O)COCCC12CC3CC(CC(C3)C1)C2` (stereo not drawn): the AC50 is > 100 µM (inactive).

Regarding `O=C1NC(CCc2ccccc2)C(=O)N1Cc1cccc2ccccc12` (stereo not drawn), the AC50 was > 100 µM (inactive).

For the molecule `O=C(c1cnc(Cc2c[nH]c3ccccc23)c(I)c1)N1CCCCC1`, the AC50 is > 100 µM (inactive).

On to `COc1cccc(C(NC(C)=O)c2nc(-c3ccccc3OC)cs2)c1` (stereo not drawn), for which the AC50 is > 100 µM (inactive).

`Cc1cccc(CN2C(=O)c3ccccc3Sc3ccc(C(=O)O)cc32)c1`: the AC50 is > 100 µM (inactive).

For `CCn1nc(C(=O)OCc2cccc(S(=O)(=O)N(C)C)c2)c2ccccc2c1=O`, the AC50 is > 100 µM (inactive).

With `CCC(=O)Nc1nc2ccc(NC(=O)c3cc(OC)c(OC)c(OC)c3)cc2s1`, the AC50 is > 100 µM (inactive).

On to `CC(C)(C)c1ccc(N2C(=O)CSC2c2cccnc2)cc1` (stereo not drawn), for which the AC50 was > 100 µM (inactive).

`CCOC(=O)C1CCCN(C(=O)c2csc(-c3ccc4c(c3)CCO4)n2)C1` (stereo not drawn): the AC50 is > 100 µM (inactive).

On to `COC(=O)c1cc(C(=O)c2c(C)cc3ccccn23)cc([N+](=O)[O-])c1`, for which the AC50 was > 100 µM (inactive).

For the molecule `C[C@@H]1CCCCO[C@@H](CN(C)C(=O)c2ccccc2)[C@H](C)CN([C@@H](C)CO)C(=O)c2cc(NC(=O)c3ccccc3)ccc2O1`, the AC50 is > 100 µM (inactive).

Turning to `Cc1cccc(NC(=O)c2sc3nc(-c4ccccc4)cn3c2C)n1`, the AC50 was > 100 µM (inactive).

`Cc1ccc(C2NC(=O)c3[nH]nc(-c4ccccc4)c32)cc1` (stereo not drawn): the AC50 was > 100 µM (inactive).

Consider `COc1ccc(NS(=O)(=O)c2ccc(Cl)c(NC(=O)c3ccccc3F)c2)cc1`, for which the AC50 is > 100 µM (inactive).

Consider `COc1ccc(OCC2c3cc(OC)c(OC)cc3CCN2C(=O)C(C)C)cc1` (stereo not drawn), for which the AC50 is > 100 µM (inactive).

Consider `Cc1ccccc1-n1ncc2c1CC(C)(C)CC2NC(=O)CCN1Cc2ccccc2C1=O` (stereo not drawn), for which the AC50 was > 100 µM (inactive).

In the case of `CCOc1ccc(OCc2cccc(C(=O)O)c2)cc1`, the AC50 is > 100 µM (inactive).

`O=C(CCC(=O)c1cccs1)OCC(=O)c1ccc(Cl)s1`: the AC50 was > 100 µM (inactive).

As to `O=C1Nc2ccc(F)cc2C12Nc1ccccc1-c1nnc(SCc3ccccc3)nc1O2` (stereo not drawn), the AC50 was > 100 µM (inactive).

As to `O=C(O)CSc1nnc(-c2ccc(Cl)cc2Cl)n1-c1ccc(Br)cc1`, the AC50 was > 100 µM (inactive).
